Experimental data published in a melting point compilation (Tetko et al.; mined from patent text by program, amines drawn as free bases though some values may be those of a salt).

Compared with `Cc1c(-c2ccccc2)nn(C(C)C(=O)N(C)C)c1[N+](=O)[O-]` (stereo not drawn), `NC(=O)Nc1ccc2oc([N+](=O)[O-])c(-c3ccccc3)c2c1` is higher in melting point: 141 to 143 °C for the first, 230 to 232 °C for the second.

First: CCC(=O)NCCC1CN(C=O)c2ccc3c(c21)CCO3 (stereo not drawn)
Second: CCC(=O)Nc1cccc2c1C(=O)N(C1CCC(=O)NC1=O)C2=O (stereo not drawn)
The melting point of the first is lower: 139 to 141 °C for the first, 221 to 223 °C for the second.

First: CC1(C)OC(c2ccc(S(N)(=O)=O)cc2)=C(c2cc3ccccc3s2)C1=O
Second: Cc1cc(-c2cc(C(F)(F)F)nn2-c2ccc(S(C)(=O)=O)cc2)ccc1-c1cocn1
The melting point of the first is lower: 120 to 121 °C for the first, 148 to 150 °C for the second.

First: COC(=O)Nc1ccc(C(=O)OC)cc1
Second: COC(=O)c1ccc2occ(-c3ccc(SC)c(Cl)c3)c2c1
The melting point of the first is higher: 177 to 178 °C for the first, 115 to 116 °C for the second.

Compared with `Fc1ccccc1OCc1ccc2ccccc2n1`, `O=C(CCc1cnoc1-c1ccccc1)Nc1ccc2ccccc2n1` is higher in melting point: 84 to 86 °C for the first, 112 to 113 °C for the second.

First: COc1nc2ccc(Br)cc2c2c1C(C)(OCC(O)Cn1ccc(-c3ccc(C(F)(F)F)cc3)n1)c1ccccc1-2 (stereo not drawn)
Second: O=S(=O)(Nc1ccc2c(OCc3ccc(-c4ccc(F)cc4)cc3F)cccc2c1)C(F)(F)F
The melting point of the first is lower: 65 to 67 °C for the first, 134 to 136 °C for the second.

First: O=C(NO)c1ccc(C(=O)NC/C=C/c2ccccc2)cc1
Second: CNC(=O)c1ccccc1-c1cc(-c2ccccc2)no1
The melting point of the first is higher: 169 to 170 °C for the first, 119 to 121 °C for the second.

First: CCOC(=O)/C=C/c1ccc2oc(Cc3nc(-c4ccccc4)oc3C)cc2c1
Second: COc1ccc(-c2nc(-c3ccccc3)c3ncc(Cl)cc3n2)cc1
The melting point of the first is lower: 150 to 151 °C for the first, 193 to 194 °C for the second.

First: COc1cc(OCC(=O)O)cc2c1C(Cl)=CC1(CCCCC1)O2
Second: O=C1CCCc2ccc(OCc3ccc(Cl)c(Cl)c3)cc21
The melting point of the first is higher: 132 to 133 °C for the first, 122 to 123 °C for the second.

First: COc1cccc(-c2nc3n(n2)Cc2ccc(OC)cc2-3)c1
Second: CNc1ccc(-c2nc(C(=O)Nc3nccs3)c(-c3cccc(OC)c3)[nH]2)cc1
The melting point of the first is lower: 136 to 138 °C for the first, 248 to 251 °C for the second.

Compared with `CC(C)(C)OC(=O)NC1Cc2ccccc2C1Oc1ccccc1Cc1ccccc1` (stereo not drawn), `CCCCc1nc(SCC)c2ccccc2c1Cc1ccc(C(=O)OC)cc1` is lower in melting point: 113 to 114 °C for the first, 70 °C for the second.

Compared with `O=C(Cc1ccccc1)OCCOC(=O)NC1(C(=O)O)CC1`, `O=C(O)CCC(=O)c1ccc(CCNS(=O)(=O)CCc2ccc(Cl)cc2)cc1` is lower in melting point: 142 to 146 °C for the first, 112 °C for the second.

First: CC(C)n1cnc2c(Nc3ccc([N+](=O)[O-])cc3)nc(Cl)nc21
Second: CC(C)CNc1ccccc1CS(=O)c1nc2ncccc2[nH]1 (stereo not drawn)
The melting point of the first is higher: > 260 °C for the first, 116 °C for the second.

First: CCOC(=O)c1[nH]cc2c1NC1=C(C(=O)CCC1)C2c1ccc(Sc2nc3cc(Cl)c(Cl)cc3[nH]2)o1 (stereo not drawn)
Second: COc1cc(OC)c2c(=O)[nH]c(-c3ccc(OC)c(-c4ccc(C(=O)N(C)C)cc4Cl)c3)nc2c1
The melting point of the first is lower: 180 °C for the first, > 300 °C for the second.

First: BrCCCCCCCOc1ccc2c(c1)OCO2
Second: CCN(CC)c1ccc2cc(C(=O)OCCCCCCO)c(=O)oc2c1
The melting point of the first is lower: 45 to 47 °C for the first, 85 to 86 °C for the second.

Compared with `C#CCN1C(=O)COc2cc(F)c([N+](=O)[O-])cc21`, `CC(=O)N1CC(C)(C)c2cc3nc[nH]c3cc21` is higher in melting point: 105 to 107 °C for the first, 214 to 216 °C for the second.

First: COCN(c1cccc2cc(-c3nc[nH]n3)n(COC)c12)S(=O)(=O)c1cccs1
Second: O=C(c1cccs1)c1cnn2c(-c3cccc(NCC4CCCCC4)c3)ccnc12
The melting point of the first is lower: 97 to 99 °C for the first, 101 to 104 °C for the second.

Compared with `COc1cc(NC(=O)CCCCCN2CCN(CCO)CC2)c2nccc(C)c2c1`, `CCOC(=O)c1c(N2CCN(C(=O)c3cccs3)CC2)c2cccnc2n(C)c1=O` is higher in melting point: 88 to 90 °C for the first, 164 °C for the second.

First: O=C(O)c1cccc(-c2cccc3c2CCN(Cc2cccc(C(F)(F)F)c2)C3)c1
Second: Nc1ccc2c(ccn2Cc2ccccc2)c1
The melting point of the first is higher: 230 to 231 °C for the first, 66 to 68 °C for the second.

First: CCC(=O)C1C(=O)CC(C#N)CC1=O (stereo not drawn)
Second: CC(C)(C)OC(=O)N1CCC(CCc2c3c(nn2C(C)(C)C)c(=O)[nH]c2ccccc23)CC1
The melting point of the first is lower: 70 to 74 °C for the first, 223 to 225 °C for the second.

First: CC1(C)[C@@H](C(=O)Nc2cc(C(F)(F)F)n[nH]2)[C@@H]1c1ccc(S(N)(=O)=O)cc1 (relative stereo)
Second: CS(=O)(=O)c1ccc(-n2nc(C(F)F)cc2-c2nc3ccc(F)cc3s2)cc1
The melting point of the first is higher: 210 to 213 °C for the first, 204 to 206 °C for the second.

Compared with `Cc1c(C(C)(C)C)cc(C(C)C)c(-c2c(C(C)C)cc(C(C)(C)C)c(C)c2O)c1O`, `COc1ccc(OC)c2c1C(=O)c1c(C)oc(C)c1C2=O` is higher in melting point: 105 to 108 °C for the first, 227 to 228 °C for the second.

First: CCCN(CCC)c1c(CC)nn2c(-c3c(C)cc(C)cc3OC)cccc12
Second: CCCCC(=O)N(Cc1cccc(OC)c1)c1cc(F)cc(-c2nnn[nH]2)c1
The melting point of the first is lower: 72.3 to 74.6 °C for the first, 118 to 120 °C for the second.

Compared with `O=C(O)CON=c1c2nccc3c(Cl)ccc(c32)n2cccc12`, `O=C1CC(c2ccccc2Cl)Cc2[nH]nc(-c3ccccc3)c21` (stereo not drawn) is higher in melting point: 202 °C for the first, 218 to 222 °C for the second.

First: CCCCCCCCNc1c(Nc2ccc(CC(C)NC[C@H](O)COc3cccc4[nH]c5ccccc5c34)cc2)c(=O)c1=O (stereo partly drawn)
Second: CCN(CC)CCOc1ccc(Nc2ncc3c(n2)N(c2ccccc2)C(=O)N(c2c(Cl)cccc2Cl)C3)cc1
The melting point of the first is lower: 125 to 131 °C for the first, 162 to 163 °C for the second.

First: N#Cc1nc(Cl)c(Cl)c(NN)c1Cl
Second: CC(C)(CBr)c1cc(Cl)nnc1Cl
The melting point of the first is higher: 178 to 181 °C for the first, 86.5 to 88.5 °C for the second.

First: O=C(Nc1ccc(CCCc2nnn[nH]2)cc1)C(F)(F)C(F)(F)C(F)(F)C(F)(F)C(F)(F)C(F)(F)C(F)(F)F
Second: CC(C)(C=NO)C1CCN(CC#Cc2cc(C(F)(F)F)cc(C(F)(F)F)c2)CC1
The melting point of the first is higher: 170 to 172 °C for the first, 63 to 65 °C for the second.

First: CCN(CC)C(=O)/C=C/c1ccc(Cn2c(-c3ccc(O)cc3)c(C)c3cc(O)ccc32)cc1
Second: CCOCCCOc1ccc(-c2ccc3c(c2)C=C(C(=O)Nc2ccc(CN(C)C4CCOCC4)cc2)CCS3(=O)=O)cc1
The melting point of the first is lower: 160 to 165 °C for the first, 214 to 215 °C for the second.

Compared with `Nc1ccc(F)c(F)c1NC(=S)Nc1c(Cl)cccc1Cl`, `CCOc1ccc2ccc(F)c(F)c2c1F` is lower in melting point: > 310 °C for the first, 96.5 to 98.5 °C for the second.

First: CCOC1OC(C(O)CO)C(O)C1O (stereo not drawn)
Second: CCC(C)CC1OC(CC(=O)Nc2ccc(F)c(CCC(=O)O)c2)C(=O)N(CC(C)(C)CO)c2ccc(Cl)cc21 (stereo not drawn)
The melting point of the first is lower: 59 to 60 °C for the first, 123 to 125 °C for the second.

First: COc1cc(CSc2ccc(N)nn2)cc(OC)c1OC
Second: COCc1cc(-c2ncc(C(F)(F)F)cc2Cl)ccc1Cl
The melting point of the first is higher: 143 to 146 °C for the first, 52 to 54 °C for the second.

First: COC(=O)C1(C)CCN(c2cccc(-c3cnc4[nH]cc(C(=O)C(C)(C)C)c4n3)c2)C1 (stereo not drawn)
Second: CC(C)(C)OC(=O)N1Cc2c(-c3noc(C4CC4)n3)ncn2-c2ccccc21
The melting point of the first is lower: 198 to 200 °C for the first, 204 °C for the second.

First: CC(C)C(=O)OC[C@@]1(N=[N+]=[N-])O[C@@H](n2ccc(N)nc2=O)[C@@H](OC(=O)C(C)C)[C@@H]1OC(=O)C(C)C
Second: CC(Nc1nc(NNC(=O)CCCl)nc(Cl)c1-c1c(F)cccc1Cl)C(F)(F)F (stereo not drawn)
The melting point of the first is higher: 167 to 169 °C for the first, 152 to 156 °C for the second.

Compared with `CCCS(=O)(=O)c1ccc(NS(=O)(=O)c2cccs2)c2[nH]c(C(=O)NCCSC(c3ccccc3)(c3ccccc3)c3ccccc3)cc12`, `Cc1nnc(C=Cc2ccccc2OCC(O)CNC2CC2)s1` (stereo not drawn) is lower in melting point: 200 to 201 °C for the first, 144 to 145 °C for the second.
